The target of this test is T1, adenine deaminase (ADE) (Escherichia coli, UniProt P31441).
T1 sequence (P31441 1-588): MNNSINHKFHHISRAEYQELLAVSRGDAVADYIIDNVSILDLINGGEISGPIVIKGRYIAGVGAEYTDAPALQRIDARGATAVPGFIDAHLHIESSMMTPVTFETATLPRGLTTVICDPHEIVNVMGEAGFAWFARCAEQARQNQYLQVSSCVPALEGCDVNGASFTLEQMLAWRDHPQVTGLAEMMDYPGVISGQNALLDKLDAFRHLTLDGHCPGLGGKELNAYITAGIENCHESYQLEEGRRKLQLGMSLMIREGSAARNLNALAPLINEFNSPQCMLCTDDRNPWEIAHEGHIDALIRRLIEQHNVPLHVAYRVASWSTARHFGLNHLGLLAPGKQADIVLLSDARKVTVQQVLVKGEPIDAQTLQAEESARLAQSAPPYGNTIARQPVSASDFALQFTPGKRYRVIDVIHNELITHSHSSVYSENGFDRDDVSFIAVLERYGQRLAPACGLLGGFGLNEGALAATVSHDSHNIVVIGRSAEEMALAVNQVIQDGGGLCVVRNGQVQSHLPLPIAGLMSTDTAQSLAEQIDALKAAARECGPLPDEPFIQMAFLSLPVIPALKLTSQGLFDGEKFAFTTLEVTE
Put plainly: GDH-coupled adenine deamination assay after […] h incubation with Mn/Mn-ADE. It counts as biochemical.

With `Clc1ncnc2[nH]cnc12` [6-chloropurine], the affinity corresponds to a Ki of 130 ± 15 nM.

Usually Ki stands for the equilibrium dissociation constant of an inhibitor or competing ligand from its target. Read a high Ki as weaker binding.

The values are drawn from PMC3059353 (Biochemistry, 2011).
